Source: ChEMBL document CHEMBL6178012, “Discovery of RP-1664: A First-in-Class Orally Bioavailable, Selective PLK4 Inhibitor” (J Med Chem, 2025)
Each block holds one compound with its values, some of them ahead of it.

Key:
in vitro [1] = details: human, cryopreserved hepatocytes
MCF7 = assay: cells; details: Homo sapiens
in vivo [2] = details: female, CD-1, mouse, iv, 1 mg/kg
in vitro [3] = details: human, Caco-2
in vivo [4] = details: female, CD-1, mouse, po, 5 mg/kg
in vitro [5] = details: human, Caco-2; remark: listed apart in the source
in vitro [6] = details: mouse, liver microsomes
in vitro [7] = details: dog, MDCK
in vivo [8] = details: male, Beagle, dog, iv, 0.5 mg/kg
in vitro [9] = details: dog, liver microsomes
[10] = biological target: T1, Serine/threonine-protein kinase PLK4 (Homo sapiens) (UniProt O00444); details: Mus musculus; SCID-Beige; CAL-148; dose lower 6.0 mg/kg, dose upper […], route po, time 7.0 day
T1 sequence (whole entry): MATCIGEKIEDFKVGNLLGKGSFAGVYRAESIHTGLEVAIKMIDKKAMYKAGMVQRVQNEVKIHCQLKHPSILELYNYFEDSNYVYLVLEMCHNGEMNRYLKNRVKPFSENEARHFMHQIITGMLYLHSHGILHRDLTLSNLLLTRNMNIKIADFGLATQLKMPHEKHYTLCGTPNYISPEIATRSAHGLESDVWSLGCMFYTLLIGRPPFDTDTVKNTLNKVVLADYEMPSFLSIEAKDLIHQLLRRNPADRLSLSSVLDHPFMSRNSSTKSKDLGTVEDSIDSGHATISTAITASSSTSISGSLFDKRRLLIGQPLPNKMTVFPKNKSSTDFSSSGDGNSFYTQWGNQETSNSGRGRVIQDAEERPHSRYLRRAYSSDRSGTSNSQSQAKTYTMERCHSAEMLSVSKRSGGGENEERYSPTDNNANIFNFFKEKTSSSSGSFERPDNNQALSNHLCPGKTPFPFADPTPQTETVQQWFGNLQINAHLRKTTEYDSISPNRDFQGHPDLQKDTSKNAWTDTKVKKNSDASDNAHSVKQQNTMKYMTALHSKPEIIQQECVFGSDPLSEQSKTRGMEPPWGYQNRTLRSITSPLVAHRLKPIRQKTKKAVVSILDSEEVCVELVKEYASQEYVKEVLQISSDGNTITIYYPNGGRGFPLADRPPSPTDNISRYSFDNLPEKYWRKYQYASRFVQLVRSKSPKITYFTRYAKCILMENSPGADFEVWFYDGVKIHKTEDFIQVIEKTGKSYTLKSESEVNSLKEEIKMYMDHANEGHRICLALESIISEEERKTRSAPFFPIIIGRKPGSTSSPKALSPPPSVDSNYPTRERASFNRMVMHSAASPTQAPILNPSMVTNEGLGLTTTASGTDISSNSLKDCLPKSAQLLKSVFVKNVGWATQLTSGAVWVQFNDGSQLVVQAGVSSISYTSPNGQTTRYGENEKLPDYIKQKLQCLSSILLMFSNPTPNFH

in vitro [11] = details: rhesus monkey, cryopreserved hepatocytes
in vivo [12] = details: male, Sprague-Dawley, rat, po
in vivo [13] = details: cynomolgus monkey, po, 1.25 mg/kg
in vitro [14] = details: rat, cryopreserved hepatocytes
in vitro [15] = details: rat, liver microsomes
in vitro [16] = details: human, liver microsomes
in vivo [17] = details: cynomolgus monkey, iv, 0.5 mg/kg
in vitro [18] = details: mouse, cryopreserved hepatocytes
in vivo [19] = details: male, Beagle, dog, po, 1.15 mg/kg
in vitro [20] = details: rhesus monkey, liver microsomes
in vitro [21] = details: dog, cryopreserved hepatocytes
[22] = biological target: T1, Serine/threonine-protein kinase PLK4 (Homo sapiens); details: Mus musculus; SCID-Beige; CAL-148; dose lower 6.0 mg/kg, dose upper […], route po, time 4.0 day

hepatocyte CLint at 1 µM (in vitro [1]): 51.5 µL/min/1e6 cells
EC50 (MCF7): 92 nM
Structure (SMILES): Cc1cc(Nc2nc(N(C)c3c(F)cc(S(C)(=O)=O)cc3F)nc(-c3ccnnc3)c2C2CC2)n[nH]1

hepatocyte CLint at 1 µM (in vitro [1]): 50.9 µL/min/1e6 cells
EC50 (MCF7): 150 nM
Structure (SMILES): Cc1cc(Nc2nc(N(C)c3c(F)cc(S(C)(=O)=O)cc3F)nc(N3CCOCC3)c2C2CC2)n[nH]1

EC50 (MCF7): 860 nM
Structure (SMILES): CN(c1nc(Nc2cc(C(F)F)[nH]n2)c(C2CC2)c(-c2cnn(C)c2)n1)c1c(F)cc(S(C)(=O)=O)cc1F

hepatocyte CLint at 1 µM (in vitro [1]): 12.8 µL/min/1e6 cells
Structure (SMILES): Cc1cc(Nc2nc(N(C)c3c(F)cc(S(C)(=O)=O)cc3F)nc(-c3cn(C)nc3CO)c2C2CC2)n[nH]1

hepatocyte CLint at 1 µM (in vitro [1]): 8.2 µL/min/1e6 cells
EC50 (MCF7): 210 nM
Structure (SMILES): Cc1cc(Nc2nc(N(C)c3ccc(S(=O)(=O)C4CC4)cc3F)nc(-c3cnn(C)c3)c2C2CC2)n[nH]1

hepatocyte CLint at 1 µM (in vitro [1]): 6 µL/min/1e6 cells
clearance at 24 h (in vivo [2]): 12 mL/min/kg
Papp at […], 10 µM (in vitro [3]): 7.8 ×10⁻⁶ cm/s
EC50 (MCF7): 23 nM
bioavailability at 24 h (in vivo [4]): 55%
efflux ratio at […], 10 µM (in vitro [5]): 6.9
Structure (SMILES): Cc1cc(Nc2nc(N(C)c3c(F)cc(S(C)(=O)=O)cc3F)nc(-c3cc(C(C)(C)O)n(C)n3)c2C2CC2)n[nH]1

hepatocyte CLint at 1 µM (in vitro [1]): 50.1 µL/min/1e6 cells
clearance at 24 h (in vivo [2]): 10 mL/min/kg
EC50 (MCF7): 83 nM
bioavailability at 24 h (in vivo [4]): > 100%
Structure (SMILES): Cc1cc(Nc2nc(N(C)c3c(F)cc(S(C)(=O)=O)cc3F)nc(-c3cn(C)nc3C)c2C2CC2)n[nH]1

EC50 (MCF7): 180 nM
Structure (SMILES): Cc1cc(Nc2nc(N(C)c3ccc(S(C)(=O)=O)cc3Cl)nc(-c3cnn(C)c3)c2C2CC2)n[nH]1

EC50 (MCF7): 1300 nM
Structure (SMILES): Cc1cc(Nc2nc(Nc3ccc(S(C)(=O)=O)cc3F)nc(-c3cnn(C)c3)c2C2CC2)n[nH]1

microsomal CLint at 1 µM (in vitro [6]): < 7.7 µL/min/mg
EC50 (MCF7): 890 nM
Structure (SMILES): COc1c(Nc2cc(C)[nH]n2)nc(Sc2ccc(S(C)(=O)=O)cc2F)nc1-c1cnn(C)c1

microsomal CLint at 1 µM (in vitro [6]): < 7.7 µL/min/mg
Structure (SMILES): COc1c(Nc2cc(C)[nH]n2)nc(Sc2ccc(S(C)(=O)=O)cc2)nc1-c1cnn(C)c1

Papp A→B at 2 h, 1 µM (in vitro [7]): 8.1 ×10⁻⁶ cm/s
microsomal CLint at 1 µM (in vitro [6]): 47 µL/min/mg
Structure (SMILES): COc1c(Nc2cc(C)[nH]n2)nc(Sc2ccc(S(C)(=O)=O)cc2F)nc1N1CCCCC1

EC50 (MCF7): 430 nM
Structure (SMILES): Cc1cc(Nc2nc(N(C)c3ccc(S(C)(=O)=O)cc3F)nc(-c3cnn(C)c3)c2C2CC2)n[nH]1

hepatocyte CLint at 1 µM (in vitro [1]): 7.5 µL/min/1e6 cells
clearance at 24 h (in vivo [2]): 9 mL/min/kg
Papp at […], 10 µM (in vitro [3]): 28 ×10⁻⁶ cm/s
EC50 (MCF7): 34 nM
bioavailability at 24 h (in vivo [4]): > 100%
efflux ratio at […], 10 µM (in vitro [5]): 2.5
Structure (SMILES): Cc1cc(Nc2nc(N(C)c3c(F)cc(S(C)(=O)=O)cc3F)nc(-c3cn(C)c(C4CC4)n3)c2C2CC2)n[nH]1

EC50 (MCF7): 2500 nM
Structure (SMILES): Cc1cc(Nc2nc(Oc3ccc(S(C)(=O)=O)cc3F)nc(-c3cnn(C)c3)c2C2CC2)n[nH]1

hepatocyte CLint at 1 µM (in vitro [1]): 20.4 µL/min/1e6 cells
EC50 (MCF7): 230 nM
Structure (SMILES): C#Cc1cc(Nc2nc(N(C)c3c(F)cc(S(C)(=O)=O)cc3F)nc(-c3cnn(C)c3)c2C2CC2)n[nH]1

clearance at 24 h (in vivo [8]): 30 mL/min/kg
hepatocyte CLint at 1 µM (in vitro [1]): < 3.8 µL/min/1e6 cells
microsomal CLint at 1 µM (in vitro [9]): < 7.7 µL/min/mg
inhibition [10]: Dose-dependent-effect
hepatocyte CLint at 1 µM (in vitro [11]): < 3.8 µL/min/1e6 cells
clearance at 24 h (in vivo [2]): 11 mL/min/kg
bioavailability at 24 h (in vivo [12]): 28%
bioavailability at 24 h (in vivo [13]): 96%
hepatocyte CLint at 1 µM (in vitro [14]): < 3.8 µL/min/1e6 cells
microsomal CLint at 1 µM (in vitro [6]): < 7.7 µL/min/mg
microsomal CLint at 1 µM (in vitro [15]): < 7.7 µL/min/mg
Papp at […], 10 µM (in vitro [3]): 4.6 ×10⁻⁶ cm/s
EC50 (MCF7): 51 nM
microsomal CLint at 1 µM (in vitro [16]): < 7.7 µL/min/mg
clearance at 24 h (in vivo [17]): 14 mL/min/kg
hepatocyte CLint at 1 µM (in vitro [18]): < 3.8 µL/min/1e6 cells
bioavailability at 24 h (in vivo [19]): 98%
microsomal CLint at 1 µM (in vitro [20]): < 7.7 µL/min/mg
hepatocyte CLint at 1 µM (in vitro [21]): < 3.8 µL/min/1e6 cells
bioavailability at 24 h (in vivo [4]): ≥ 100%
inhibition [22]: Dose-dependent-effect
efflux ratio at […], 10 µM (in vitro [5]): 8.1
Structure (SMILES): Cc1cc(Nc2nc(N(C)c3c(F)cc(S(C)(=O)=O)cc3F)nc(-c3cn(C)cn3)c2C2CC2)n[nH]1

EC50 (MCF7): 67 nM
Structure (SMILES): Cc1cc(Nc2nc(N(C)c3c(F)cc(S(C)(=O)=O)c(F)c3F)nc(-c3cnn(C)c3)c2C2CC2)n[nH]1

hepatocyte CLint at 1 µM (in vitro [1]): 12 µL/min/1e6 cells
EC50 (MCF7): 57 nM
Structure (SMILES): CN(c1nc(Nc2cc(C3CC3)[nH]n2)c(C2CC2)c(-c2cnn(C)c2)n1)c1c(F)cc(S(C)(=O)=O)cc1F

Papp A→B at 2 h, 1 µM (in vitro [7]): 14 ×10⁻⁶ cm/s
microsomal CLint at 1 µM (in vitro [6]): 31 µL/min/mg
Structure (SMILES): COc1c(Nc2cc(C)[nH]n2)nc(Sc2ccc(S(C)(=O)=O)cc2F)nc1N1CCOCC1

hepatocyte CLint at 1 µM (in vitro [1]): < 3.8 µL/min/1e6 cells
clearance at 24 h (in vivo [2]): 3 mL/min/kg
Papp at […], 10 µM (in vitro [3]): 12 ×10⁻⁶ cm/s
EC50 (MCF7): 35 nM
bioavailability at 24 h (in vivo [4]): 40%
efflux ratio at […], 10 µM (in vitro [5]): 4.4
Structure (SMILES): Cc1cc(Nc2nc(N(C)c3c(F)cc(S(C)(=O)=O)cc3F)nc(-c3cn4c(n3)COCC4)c2C2CC2)n[nH]1

Papp A→B at 2 h, 1 µM (in vitro [7]): 0.1 ×10⁻⁶ cm/s
microsomal CLint at 1 µM (in vitro [6]): > 416 µL/min/mg
Structure (SMILES): COc1c(Nc2cc(C)[nH]n2)nc(Sc2ccc(S(=O)(=O)Cc3cccc([N+](=O)[O-])c3F)cc2F)nc1N1CCCCC1

hepatocyte CLint at 1 µM (in vitro [1]): 42 µL/min/1e6 cells
EC50 (MCF7): 160 nM
Structure (SMILES): Cc1cc(Nc2nc(N(C)c3cc(F)c(S(C)(=O)=O)cc3F)nc(-c3cnn(C)c3)c2C2CC2)n[nH]1

hepatocyte CLint at 1 µM (in vitro [1]): 5.3 µL/min/1e6 cells
clearance at 24 h (in vivo [2]): 7 mL/min/kg
Papp at […], 10 µM (in vitro [3]): 28 ×10⁻⁶ cm/s
EC50 (MCF7): 65 nM
bioavailability at 24 h (in vivo [4]): > 100%
efflux ratio at […], 10 µM (in vitro [5]): 1.1
Structure (SMILES): Cc1cc(Nc2nc(N(C)c3c(F)cc(S(C)(=O)=O)cc3F)nc(-c3cnn(C)c3)c2C2CC2)n[nH]1

EC50 (MCF7): 1700 nM
Structure (SMILES): Cc1cc(Nc2nc(Sc3ccc(S(C)(=O)=O)cc3F)nc(-c3cnn(C)c3)c2C2CC2)n[nH]1

hepatocyte CLint at 1 µM (in vitro [1]): 19.4 µL/min/1e6 cells
Structure (SMILES): Cc1cc(Nc2nc(N(C)c3c(F)cc(S(N)(=O)=O)cc3F)nc(-c3cnn(C)c3)c2C2CC2)n[nH]1

hepatocyte CLint at 1 µM (in vitro [1]): 6 µL/min/1e6 cells
clearance at 24 h (in vivo [2]): 15 mL/min/kg
EC50 (MCF7): 140 nM
bioavailability at 24 h (in vivo [4]): 23%
Structure (SMILES): Cc1cc(Nc2nc(N(C)c3c(F)cc(S(C)(=O)=O)cc3F)nc(-c3cnn(C)c3CO)c2C2CC2)n[nH]1
